Experimental data taken from article PMC9851200, “Multiparameter phenotypic screening for endogenous TFEB and TFE3 translocation identifies novel chemical series modulating lysosome function” (Autophagy, 2022).
Read-outs that look alike come from different tables or passages of the source.

Tests used:
TGFBR1 [1] = target: T1, TGFBR1 (Homo sapiens, UniProt P36897); test: TGFBR1 binding KD (Table S3)
T1 sequence (P36897 34-503): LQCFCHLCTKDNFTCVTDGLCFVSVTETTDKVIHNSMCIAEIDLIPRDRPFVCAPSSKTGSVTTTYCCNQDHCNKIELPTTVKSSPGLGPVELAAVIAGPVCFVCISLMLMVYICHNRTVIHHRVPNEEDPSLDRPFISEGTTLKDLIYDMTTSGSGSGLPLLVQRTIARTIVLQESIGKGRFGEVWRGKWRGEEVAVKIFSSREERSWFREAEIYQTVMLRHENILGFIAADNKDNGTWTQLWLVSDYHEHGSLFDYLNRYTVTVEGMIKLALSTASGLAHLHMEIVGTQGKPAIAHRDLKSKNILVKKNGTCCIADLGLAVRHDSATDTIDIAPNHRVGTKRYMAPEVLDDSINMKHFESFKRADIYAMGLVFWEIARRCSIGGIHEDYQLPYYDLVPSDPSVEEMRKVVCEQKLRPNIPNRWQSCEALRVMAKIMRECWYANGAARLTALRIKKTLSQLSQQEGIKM
Text: Supplement KAUP_A_2095834_SM5251.zip/Supplementary Tables R7.xlsx, sheet "Table S3 - Analogues"

PRKD2 = target: T2, PRKD2 (Homo sapiens, UniProt Q9BZL6); test: KINOMEscan PRKD2; format: binding; settings: NEW KINOMEscan
T2 sequence (Q9BZL6 1-878): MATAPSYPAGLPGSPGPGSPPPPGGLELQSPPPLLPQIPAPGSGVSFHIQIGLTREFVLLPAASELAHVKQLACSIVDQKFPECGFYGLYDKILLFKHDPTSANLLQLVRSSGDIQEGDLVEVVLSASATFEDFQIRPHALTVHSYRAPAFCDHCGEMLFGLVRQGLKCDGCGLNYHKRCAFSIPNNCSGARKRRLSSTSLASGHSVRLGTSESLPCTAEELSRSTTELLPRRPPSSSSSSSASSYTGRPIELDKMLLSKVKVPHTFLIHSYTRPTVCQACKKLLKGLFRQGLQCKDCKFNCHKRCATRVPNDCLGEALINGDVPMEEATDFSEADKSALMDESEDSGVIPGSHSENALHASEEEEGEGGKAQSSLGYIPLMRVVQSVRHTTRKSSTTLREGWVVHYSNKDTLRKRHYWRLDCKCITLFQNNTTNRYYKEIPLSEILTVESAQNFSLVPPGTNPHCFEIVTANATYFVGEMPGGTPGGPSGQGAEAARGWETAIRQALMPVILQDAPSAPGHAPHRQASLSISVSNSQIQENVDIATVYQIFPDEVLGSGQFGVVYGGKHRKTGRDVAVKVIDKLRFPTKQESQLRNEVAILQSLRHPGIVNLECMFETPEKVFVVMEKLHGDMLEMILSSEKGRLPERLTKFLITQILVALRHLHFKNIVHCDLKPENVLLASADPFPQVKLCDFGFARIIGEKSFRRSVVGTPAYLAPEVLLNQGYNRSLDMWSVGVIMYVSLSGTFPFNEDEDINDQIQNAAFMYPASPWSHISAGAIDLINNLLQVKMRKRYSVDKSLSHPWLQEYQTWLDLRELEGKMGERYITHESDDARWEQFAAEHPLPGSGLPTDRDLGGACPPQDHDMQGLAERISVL

TGFBR1 [2] = target: T1, TGFBR1; test: KINOMEscan TGFBR1; format: binding
CDC42BPG/DMPK2 = CDC42BPG/DMPK2 (Homo sapiens, UniProt Q6DT37); format: binding
CDC42BPB/MRCKB = CDC42BPB/MRCKB (Homo sapiens, UniProt Q9Y5S2); format: binding
CDC42BPB/MRCKB, sequence (Q9Y5S2 whole entry): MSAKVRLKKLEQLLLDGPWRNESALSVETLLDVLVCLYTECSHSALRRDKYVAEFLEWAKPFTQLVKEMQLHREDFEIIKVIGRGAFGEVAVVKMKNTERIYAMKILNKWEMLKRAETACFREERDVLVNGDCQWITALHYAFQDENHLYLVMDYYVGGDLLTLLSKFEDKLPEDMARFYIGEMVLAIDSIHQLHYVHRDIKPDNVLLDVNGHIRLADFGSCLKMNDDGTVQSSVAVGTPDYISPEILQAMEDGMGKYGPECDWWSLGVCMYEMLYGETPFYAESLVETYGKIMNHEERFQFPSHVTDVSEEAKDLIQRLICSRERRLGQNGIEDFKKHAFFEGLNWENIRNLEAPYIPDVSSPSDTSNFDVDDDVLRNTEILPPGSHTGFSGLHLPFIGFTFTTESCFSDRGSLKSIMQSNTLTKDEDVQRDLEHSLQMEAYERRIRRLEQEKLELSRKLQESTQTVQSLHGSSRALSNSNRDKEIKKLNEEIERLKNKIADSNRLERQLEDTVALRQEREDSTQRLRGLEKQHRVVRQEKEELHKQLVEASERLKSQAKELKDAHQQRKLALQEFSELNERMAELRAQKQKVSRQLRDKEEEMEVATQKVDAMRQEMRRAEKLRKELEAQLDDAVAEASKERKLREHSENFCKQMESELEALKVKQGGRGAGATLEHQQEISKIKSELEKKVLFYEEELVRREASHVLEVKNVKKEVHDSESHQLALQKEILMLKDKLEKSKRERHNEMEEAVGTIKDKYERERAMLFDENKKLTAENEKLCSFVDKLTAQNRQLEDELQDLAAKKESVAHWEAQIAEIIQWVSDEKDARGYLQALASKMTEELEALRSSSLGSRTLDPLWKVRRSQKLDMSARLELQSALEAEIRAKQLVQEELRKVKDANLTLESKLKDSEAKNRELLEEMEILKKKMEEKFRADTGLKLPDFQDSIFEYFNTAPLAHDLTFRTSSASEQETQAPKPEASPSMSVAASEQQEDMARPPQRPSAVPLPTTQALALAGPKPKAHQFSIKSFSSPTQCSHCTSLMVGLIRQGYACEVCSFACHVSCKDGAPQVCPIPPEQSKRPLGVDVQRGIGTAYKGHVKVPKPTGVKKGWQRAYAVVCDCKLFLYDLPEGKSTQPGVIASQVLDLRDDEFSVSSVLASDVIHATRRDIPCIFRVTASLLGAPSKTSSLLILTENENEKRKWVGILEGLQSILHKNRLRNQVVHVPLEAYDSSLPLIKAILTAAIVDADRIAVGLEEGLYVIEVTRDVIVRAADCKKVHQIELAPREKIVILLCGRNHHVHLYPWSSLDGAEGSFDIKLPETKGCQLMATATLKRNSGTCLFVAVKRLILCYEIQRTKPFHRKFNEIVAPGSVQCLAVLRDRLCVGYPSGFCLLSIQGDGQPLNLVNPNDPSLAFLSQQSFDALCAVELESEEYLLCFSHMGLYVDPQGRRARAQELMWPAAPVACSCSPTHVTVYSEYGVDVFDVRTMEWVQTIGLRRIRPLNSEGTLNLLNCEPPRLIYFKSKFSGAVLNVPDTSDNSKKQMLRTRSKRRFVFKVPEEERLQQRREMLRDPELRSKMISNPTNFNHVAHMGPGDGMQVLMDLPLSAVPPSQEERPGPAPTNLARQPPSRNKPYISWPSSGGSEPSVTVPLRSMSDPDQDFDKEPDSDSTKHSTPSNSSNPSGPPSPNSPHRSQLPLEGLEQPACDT

CSNK1E = CSNK1E (Homo sapiens, UniProt P49674); test: KINOMEscan CSNK1E; format: binding; settings: NEW KINOMEscan
CSNK1E, sequence (P49674 whole entry): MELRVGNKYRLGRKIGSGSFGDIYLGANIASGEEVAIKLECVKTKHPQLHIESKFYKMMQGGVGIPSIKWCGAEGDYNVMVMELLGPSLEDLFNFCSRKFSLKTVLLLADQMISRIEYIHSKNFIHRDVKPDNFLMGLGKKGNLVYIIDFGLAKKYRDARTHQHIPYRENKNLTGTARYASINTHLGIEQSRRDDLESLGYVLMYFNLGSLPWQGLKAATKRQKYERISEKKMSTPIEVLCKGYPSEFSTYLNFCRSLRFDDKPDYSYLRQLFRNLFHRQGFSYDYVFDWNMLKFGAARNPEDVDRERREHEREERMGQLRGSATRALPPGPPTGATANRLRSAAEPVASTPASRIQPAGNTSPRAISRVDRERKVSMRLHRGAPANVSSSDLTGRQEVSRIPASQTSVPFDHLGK

PRKD3 = target: T3, PRKD3 (Homo sapiens, UniProt O94806); test: KINOMEscan PRKD3; format: binding; settings: kinase PRKD3; NEW KINOMEscan
T3 sequence (O94806 1-890): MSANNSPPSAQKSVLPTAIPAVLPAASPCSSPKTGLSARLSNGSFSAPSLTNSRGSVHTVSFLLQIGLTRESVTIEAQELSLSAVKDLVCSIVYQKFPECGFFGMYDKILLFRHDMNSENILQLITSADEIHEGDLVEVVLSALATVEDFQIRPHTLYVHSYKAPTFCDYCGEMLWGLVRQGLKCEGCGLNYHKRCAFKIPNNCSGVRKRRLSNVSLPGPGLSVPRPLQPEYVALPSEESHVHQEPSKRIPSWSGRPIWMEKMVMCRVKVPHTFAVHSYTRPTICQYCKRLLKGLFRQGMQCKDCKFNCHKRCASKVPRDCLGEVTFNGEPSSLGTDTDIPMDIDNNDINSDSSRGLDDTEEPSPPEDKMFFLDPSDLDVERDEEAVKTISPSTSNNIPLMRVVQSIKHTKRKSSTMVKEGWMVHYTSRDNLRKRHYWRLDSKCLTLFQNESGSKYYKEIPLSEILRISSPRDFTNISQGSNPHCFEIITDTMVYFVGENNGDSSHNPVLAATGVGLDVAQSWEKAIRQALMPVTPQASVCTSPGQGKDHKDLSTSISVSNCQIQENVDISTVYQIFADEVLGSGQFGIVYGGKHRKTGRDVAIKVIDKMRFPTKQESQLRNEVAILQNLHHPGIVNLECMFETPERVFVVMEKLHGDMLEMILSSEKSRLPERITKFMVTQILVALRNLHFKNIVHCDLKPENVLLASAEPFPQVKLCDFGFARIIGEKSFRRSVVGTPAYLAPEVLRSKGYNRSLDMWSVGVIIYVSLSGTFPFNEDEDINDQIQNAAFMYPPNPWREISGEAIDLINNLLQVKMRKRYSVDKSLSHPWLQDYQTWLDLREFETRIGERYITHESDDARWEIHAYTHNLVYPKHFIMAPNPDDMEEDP

CSNK1D = CSNK1D (Homo sapiens, UniProt P48730); test: KINOMEscan CSNK1D; format: binding; settings: NEW KINOMEscan
CSNK1D, sequence (P48730 whole entry): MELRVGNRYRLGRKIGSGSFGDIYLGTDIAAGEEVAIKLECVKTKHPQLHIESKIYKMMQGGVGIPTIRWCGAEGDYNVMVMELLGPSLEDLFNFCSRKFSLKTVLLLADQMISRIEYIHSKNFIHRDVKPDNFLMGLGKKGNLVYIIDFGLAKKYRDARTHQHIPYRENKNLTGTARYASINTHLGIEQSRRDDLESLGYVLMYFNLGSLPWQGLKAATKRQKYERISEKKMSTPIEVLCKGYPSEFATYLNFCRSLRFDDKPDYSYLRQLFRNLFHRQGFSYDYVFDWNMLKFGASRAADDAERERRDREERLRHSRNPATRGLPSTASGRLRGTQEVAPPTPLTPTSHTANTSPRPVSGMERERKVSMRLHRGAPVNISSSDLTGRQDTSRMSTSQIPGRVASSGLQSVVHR

PIKFYVE = PIKFYVE (Homo sapiens, UniProt Q9Y2I7); test: KINOMEscan PIKFYVE; format: binding; settings: kinase PIKFYVE; NEW KINOMEscan
PIKFYVE, sequence (Q9Y2I7 whole entry): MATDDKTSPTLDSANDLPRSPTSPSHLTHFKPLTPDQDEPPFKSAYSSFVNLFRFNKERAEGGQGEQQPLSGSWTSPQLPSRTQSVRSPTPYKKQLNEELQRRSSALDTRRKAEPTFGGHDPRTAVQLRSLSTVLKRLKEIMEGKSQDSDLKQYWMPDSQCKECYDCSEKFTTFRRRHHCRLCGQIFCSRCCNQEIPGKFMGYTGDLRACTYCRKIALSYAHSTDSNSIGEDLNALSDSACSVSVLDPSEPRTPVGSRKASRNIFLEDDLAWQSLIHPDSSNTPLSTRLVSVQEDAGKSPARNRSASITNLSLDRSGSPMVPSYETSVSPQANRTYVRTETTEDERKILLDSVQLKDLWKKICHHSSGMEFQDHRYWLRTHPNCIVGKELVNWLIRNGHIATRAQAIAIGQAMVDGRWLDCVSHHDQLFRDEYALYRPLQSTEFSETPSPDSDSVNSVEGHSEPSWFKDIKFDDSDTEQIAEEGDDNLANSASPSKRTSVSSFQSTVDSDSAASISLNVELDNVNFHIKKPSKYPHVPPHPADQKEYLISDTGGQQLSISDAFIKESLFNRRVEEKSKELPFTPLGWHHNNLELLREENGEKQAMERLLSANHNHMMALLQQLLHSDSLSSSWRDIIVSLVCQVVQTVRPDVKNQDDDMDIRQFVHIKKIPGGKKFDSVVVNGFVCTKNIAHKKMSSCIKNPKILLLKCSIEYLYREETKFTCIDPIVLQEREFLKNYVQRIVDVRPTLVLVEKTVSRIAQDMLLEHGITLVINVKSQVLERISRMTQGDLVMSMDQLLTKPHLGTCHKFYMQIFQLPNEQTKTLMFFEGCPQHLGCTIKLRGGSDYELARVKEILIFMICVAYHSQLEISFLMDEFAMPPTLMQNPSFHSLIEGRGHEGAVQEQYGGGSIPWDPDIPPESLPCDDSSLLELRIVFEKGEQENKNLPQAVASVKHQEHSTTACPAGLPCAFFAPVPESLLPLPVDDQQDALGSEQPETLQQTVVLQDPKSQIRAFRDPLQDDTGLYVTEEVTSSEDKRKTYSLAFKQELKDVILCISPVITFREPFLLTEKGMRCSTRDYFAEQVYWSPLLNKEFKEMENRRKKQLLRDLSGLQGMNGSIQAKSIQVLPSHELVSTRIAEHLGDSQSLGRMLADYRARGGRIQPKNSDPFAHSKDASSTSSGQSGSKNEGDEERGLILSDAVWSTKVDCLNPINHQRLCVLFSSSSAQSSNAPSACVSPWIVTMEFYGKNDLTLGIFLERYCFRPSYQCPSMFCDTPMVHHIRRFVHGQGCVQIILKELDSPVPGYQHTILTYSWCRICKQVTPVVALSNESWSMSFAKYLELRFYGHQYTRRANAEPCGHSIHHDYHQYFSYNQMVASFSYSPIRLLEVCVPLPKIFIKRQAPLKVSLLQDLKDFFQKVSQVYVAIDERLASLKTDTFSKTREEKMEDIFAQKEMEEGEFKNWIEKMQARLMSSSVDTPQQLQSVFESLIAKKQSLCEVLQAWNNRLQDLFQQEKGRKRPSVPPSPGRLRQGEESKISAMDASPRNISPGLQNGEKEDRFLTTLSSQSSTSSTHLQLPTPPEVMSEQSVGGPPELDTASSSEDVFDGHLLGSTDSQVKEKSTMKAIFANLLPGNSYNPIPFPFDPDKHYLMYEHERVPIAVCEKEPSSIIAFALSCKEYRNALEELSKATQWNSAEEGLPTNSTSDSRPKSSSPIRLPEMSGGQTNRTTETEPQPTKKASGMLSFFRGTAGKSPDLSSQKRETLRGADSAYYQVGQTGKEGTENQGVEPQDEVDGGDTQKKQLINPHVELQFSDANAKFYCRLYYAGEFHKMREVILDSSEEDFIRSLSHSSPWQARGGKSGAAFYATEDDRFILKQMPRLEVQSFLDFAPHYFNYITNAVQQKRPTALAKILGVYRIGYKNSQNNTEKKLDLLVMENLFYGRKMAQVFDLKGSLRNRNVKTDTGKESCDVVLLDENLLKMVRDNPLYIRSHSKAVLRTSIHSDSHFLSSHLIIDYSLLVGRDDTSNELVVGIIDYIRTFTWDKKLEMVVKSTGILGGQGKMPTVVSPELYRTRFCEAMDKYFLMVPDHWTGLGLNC

BMPR1B = BMPR1B (Homo sapiens, UniProt O00238); test: KINOMEscan BMPR1B; format: binding; settings: NEW KINOMEscan
BMPR1B, sequence (O00238 14-502): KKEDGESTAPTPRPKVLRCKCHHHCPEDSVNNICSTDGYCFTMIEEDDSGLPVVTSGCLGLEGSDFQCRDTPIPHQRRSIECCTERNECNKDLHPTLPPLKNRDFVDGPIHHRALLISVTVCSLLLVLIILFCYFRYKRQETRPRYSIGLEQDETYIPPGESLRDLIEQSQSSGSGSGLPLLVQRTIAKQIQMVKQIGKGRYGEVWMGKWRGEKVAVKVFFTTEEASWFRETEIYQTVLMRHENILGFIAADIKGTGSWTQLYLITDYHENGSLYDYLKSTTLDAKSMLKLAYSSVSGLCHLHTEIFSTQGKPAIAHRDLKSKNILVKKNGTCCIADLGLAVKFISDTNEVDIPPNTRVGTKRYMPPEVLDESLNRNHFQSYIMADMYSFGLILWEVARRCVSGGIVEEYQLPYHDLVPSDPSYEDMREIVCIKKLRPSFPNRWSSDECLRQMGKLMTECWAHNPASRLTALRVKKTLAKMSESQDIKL

[3] = target: kinases (KINOMEscan panel) (Homo sapiens, UniProt Q9HC98); format: binding; settings: kinase NEK6; NEW KINOMEscan

Row | Compound | Kd (TGFBR1 [1]) [µM] | KINOMEscan PRKD2 (PRKD2) | KINOMEscan TGFBR1 (TGFBR1 [2]) | KINOMEscan CDC42BPG/DMPK2 (CDC42BPG/DMPK2) | KINOMEscan CDC42BPB/MRCKB (CDC42BPB/MRCKB) | KINOMEscan CSNK1E (CSNK1E) | KINOMEscan PRKD3 (PRKD3) | KINOMEscan CSNK1D (CSNK1D) | KINOMEscan PIKFYVE (PIKFYVE) | KINOMEscan BMPR1B (BMPR1B) | KINOMEscan NEK6 [3] | KINOMEscan TGFBR1 (TGFBR1 [2]; TGFBR1, NEW KINOMEscan)
1 | Cc1cccc(-c2nc(Nc3ccc4ncsc4c3)c3ccccc3n2)n1 [NK140] | 5 | – | – | – | – | – | – | – | – | – | – | –
2 | Cc1cccc(-c2nc(Nc3ccc4nn(C)cc4c3)c3ccccc3n2)n1 [NK167] | – | 39 | 21 | 0 | 0 | 8 | 39 | 4 | 0 | 0 | 0 | –
3 | Cc1cccc(-c2nc(Nc3ccncc3)c3ccccc3n2)n1 [NK215] | 0.0095 | – | – | – | – | – | – | – | – | – | – | –
4 | Cc1cccc(-c2nc(N(C)c3ccc4ncsc4c3)c3ccccc3n2)n1 [NK-161] | – | 63 | – | 21 | 5 | 7 | 74 | 11 | 16 | 8 | 6 | 12
